Here are results for 1 molecule from patent US8815210B2, “Diagnostic composition comprising plasma cations having superior safety profile” (GE Healthcare AS, priority 2009, dated 2014).

One series deals with Sca:SD rats. The following applies: rat, in vivo. As for the experimental part:
Young adult male Sca:SD rats (Scanbur, Sweden), weighing 200±20 g, were injected intravenously at a rate of 1.2 ml/min with either Compound I (340 mgI/mL, 286 mosmol/kg), iodixanol (321 mgI/mL, 284 mosmol/kg), osmotic control mannitol (283 mosmol/kg), or saline (290 mosmol/kg), administered as 2 separate doses 4 hours apart. For the interim kill animals (day 2 post-treatment), Compound I and iodixanol were dosed at 8, 10 and 12.8 gI/kg, corresponding to total dose volumes of 23.7, 29.7 and 38.0 ml/kg, and 25, 31.3 and 40 ml/kg, respectively, whereas for mannitol and saline, the dose volume was 40 ml/kg. For the 7 day terminal kill animals, there were 4 dose groups; Compound I and iodixanol (12.8 gI/kg), and saline and mannitol (40 mL/kg). In all cases, each group included 8 animals.
The following evaluations were made during the study; clinical signs, body weights and blood for haematology and clinical chemistry on days 0, 2 and 7, and gross observations, organ weight and histomorphological examination of tissues from the animals killed by excess intravenous thiopental injection on days 2 or 7. The day of dosing was defined as Day 0. Clinical biochemistry parameters (Na, K, Cl, PO4, Ca, AST, ALT, ALP, cholesterol, creatinine, CK, GGT, TG (triglyceride), total bilirubin, total protein, urea, albumin, LDH and GLDH were measured on a Beckman Synchron CX5 at 37° C. Haematology parameters (WBC, differential WBC, RBC, WBC/RBC ratio, Hgb, PLT, HCT, MCH, MCHC, MCV, MPV and RDW) were analyzed with an Abbott Cell-Dyn 3500 CS automated haematology analyzer. Kidneys from saline control and the 12.8 gI/kg Compound I and iodixanol groups were immerse fixed in 10% neutral buffered formalin, processed into paraffin wax, sectioned at a nominal thickness of 5 μm, stained with haematoxylin and eosin and examined by light microscopy.
The data were analysed by parametric one-way ANOVA, followed by Dunnett's post procedure test, using the 2 days and 7 days saline groups for comparison with the 2 days and 7 days iodixanol and Compound I groups. The statistical analysis was applied on day −1 (baseline), day 2 and day 7.

Series [1] relates to human serum albumin (HSA). Description: Binding to human serum albumin, equilibrium dialysis. The series is classed as in vitro ADME. The following applies: 25 hours, citrated human plasma. As to the method: The binding of Compound I to human serum albumin (HSA) was determined using an equilibrium dialysis method. The binding of Compound I to human serum albumin was determined to be very low, 3.1±1.3%, confirming the negligible interaction of the substance with endogenous proteins.
The binding of Compound I to human serum albumin (HSA) was determined using an equilibrium dialysis method. A stock solution of Compound I (5.0 mg/ml in phosphate buffered saline (PBS)) was mixed with citrate:human plasma in a ratio of 1:9. Equilibration was carried out in a Diachem Dianorm Dialyser against an aqueous phosphate buffered saline using a Diachem 10.17 MW cutoff 10000 membrane and was carried out for 25 hours. Analysis of the solutions was performed using an ICP-AES instrument. In addition, spiked PBS solutions were also equilibrated against citrated human plasma solutions to ensure that the equilibrium had been obtained. The binding of Compound I to human serum albumin was determined to be very low, 3.1±1.3%, confirming the negligible interaction of the substance with endogenous proteins. As a reference, the binding of iodixanol to HSA was determined to 0.4±0.9%.
(In general: In equilibrium dialysis only unbound substance equilibrates across the membrane.)

A short description of series [2]: Partition coefficient between octanol and water. The series is classed as physicochemical. As to conditions: n-octanol/water. As to the method:
As a measure of the hydrophilicity of Compound I, the partition coefficient between octanol and water was determined. Water (5 ml) containing the test substance (0.3 mg/ml) was shaken with 15 ml n-octanol until equilibrium had been obtained. The aqueous phase was separated by centrifugation and analyzed by HPLC (HP1100 equipped with a Discovery C18 column, 100×2.1 mm) using UV detection at 244 nm and a flow of 0.3 ml/min. Isocratic HPLC conditions were used, 8% acetonitrile in water (v/v). The octanol phase (12.5 ml) was extracted with water (0.75 ml) until equilibrium had been obtained and the phases were separated by centrifugation. The aqueous phase was analyzed by HPLC using the conditions detailed above. Both octanol and water were pre-saturated with water and octanol, respectively, before the partition coefficient experiments. […] As a comparison, the corresponding logP of iodixanol was determined to −4.02. The reported literature value is −4.05. The increased hydrophilicity of Compound I compared to iodixanol is confirmed by its HPLC behavior.

By logP is commonly meant a log measure of how a compound divides between an organic and an aqueous phase. Higher therefore signals higher lipophilicity.

For `O=CN(CC(O)CN(C=O)c1c(I)c(C(=O)NCC(O)CO)c(I)c(C(=O)NCC(O)CO)c1I)c1c(I)c(C(=O)NCC(O)CO)c(I)c(C(=O)NCC(O)CO)c1I` (stereo not drawn) [Compound I, 5-[formyl-[3-[formyl-[3,5-bis(2,3-dihydroxypropylcarbamoyl)-2,4,6-triiodophenyl]amino]-2-hydroxypropyl]amino]-N,N′-bis(2,3-dihydroxypropyl)-2,4,6-triiodobenzene-1,3-dicarboxamide], the “Proximal Tubule Vacuolation, Left Kidney” value in the series with Sca:SD rats (male, Sca:SD, 2 day) is recorded as 3, 3, 3, 3. In the series with Sca:SD rats (male, Sca:SD, iv), the “duration of clinical signs” value was 2 to 3 h and the “onset of clinical signs after the first administration” value was 10 to 20 min. For the same molecule, in the series on Sca:SD rats (iv), the adverse clinical signs entry was “mild to moderate depression and uncoordinated movements and weakness/inactivity”. In addition, the “binding to human serum albumin (HSA)” value in series [1] was 3.1±1.3%. Also, in series [2], the log partition coefficient (logP) is -4.28.
